Source: patent US20230391758A1, “MODIFIED BENZOFURAN-CARBOXAMIDES AS GLUCOSYLCERAMIDE SYNTHASE INHIBITORS” (MERCK SHARP & DOHME CORP., priority 2020, published 2023)

Target: GCS enzyme (glucosylceramide synthase) contained within Golgi preparations isolated from human A375 malignant melanoma skin cells (Homo sapiens (Human), UniProt Q16739)
Assay: UDP-Glo glucosylceramide synthase biochemical assay
Details: 1.5 μg crude golgi preparation from A375 cells; C6 ceramide and UDP-glucose at 2×Km; 20 h incubation at room temperature; UDP detected by luminescence
Description: UDP-Glo™ Glucosylceramide Synthase Biochemical Assay
A UDP-Glo™ glucosylceramide synthase biochemical assay was utilized to evaluate the effect of test compounds on the activity of endogenous levels of GCS enzyme contained within Golgi preparations isolated from human A375 malignant melanoma skin cells. The UDP-Glo™ glucosylceramide synthase assay uses UDP-Glucose as a nucleotide-glycosyl donor and ceramide as substrate acceptor molecules. In the reaction, glucosylceramide synthase (GCS) transfers glucose from UDP-Glucose to ceramide. Glucosylceramide and UDP are released as products.
Using Promega's UDP-Glo™ Glycosyltransferase assay kit (Promega Corporation, Madison, WI, USA (Promega)), GCS activity was indirectly measured by detecting the amount of UDP produced. An aliquot of GCS enzyme (1.5 μg crude golgi preparation, total protein) and titrated test compound were aliquoted to each well and incubated for 30 minutes at room temperature. Substrate mixture was prepared by mixing C6 ceramide (Avanti Polar Lipids, Alabaster, AL USA (Avanti)) (micelles prepared at 0.6 mM in 0.6 mM DOPC) and UDP-glucose (20 μ.M; Promega), at concentrations equivalent to 2×Km, in assay buffer (25 mM HEPES (pH 7.5), 50 mM KCl, 5 mM MgCl2). An equivalent volume of substrate mixture was then added to each well. Following a 20 h incubation at room temperature to allow for GCS turnover of substrate, an equal volume of UDP detection reagent (Promega) was added to each well and incubated for an additional 75 minutes at room temperature to simultaneously convert the accumulated UDP product into ATP and generate light in a luciferase reaction. The generated light was detected using a luminometer. […] luminescence values (RLUs) were normalized to mean “min” and “max” effects, as determined on each plate. “Min” was defined as the mean of the values of the wells treated with vehicle (DMSO) and which represent 0% inhibition; “max” was defined as the mean of the values of the wells treated with a reference inhibitor and which represent the 100% effect. Values for % Emax and EC50 were determined by best-fitting the normalized data to a curve in Activity Base along a four-parameter logistic nonlinear regression (4PL) model (based on the Levenberg-Marquardt algorithm and defined by the equation below): […]
where: n is 4PMin (bottom of the curve); m is 4PMax (top of the curve); i is IP (inflection point of curve); and p is slope. See Levenberg, K., “A Method for the Solution of Certain Problems in Least Squares”, Quart. Appl. Math. 2, (1944), pp 164-168 and Marquardt, D., “An Algorithm for Least Squares Estimation on Nonlinear Parameters”, SIAM J. Appl. Math. 11, (1963) pp 431-441.

Sequence of GCS enzyme (glucosylceramide synthase) contained within Golgi preparations isolated from human A375 malignant melanoma skin cells (Q16739 whole entry): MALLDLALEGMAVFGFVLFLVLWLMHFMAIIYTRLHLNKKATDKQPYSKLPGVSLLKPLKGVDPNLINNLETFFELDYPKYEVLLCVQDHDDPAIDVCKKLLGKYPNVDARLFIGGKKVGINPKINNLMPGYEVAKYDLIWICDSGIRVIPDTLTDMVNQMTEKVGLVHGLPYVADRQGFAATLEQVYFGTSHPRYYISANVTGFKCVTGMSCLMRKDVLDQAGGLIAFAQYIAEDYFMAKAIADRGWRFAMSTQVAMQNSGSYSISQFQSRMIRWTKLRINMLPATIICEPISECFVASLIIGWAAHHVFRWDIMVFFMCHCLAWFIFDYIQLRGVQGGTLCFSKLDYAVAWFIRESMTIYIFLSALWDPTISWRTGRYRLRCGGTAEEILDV

EC50 [nM]	SMILES
3.4	COc1ccc(F)c(F)c1-c1cccc2cc(C(=O)N[C@@H]3CC[C@H](O)C3)oc12 [Compound 30, 7-(2,3-difluoro-6-methoxy-phenyl)-N-[(1R,3S)-3-hydroxycyclopentyl] benzofuran-2-carboxamide]
4.1	COc1cc(-c2ccccc2OCC(F)(F)F)c2oc(C(=O)NC3CCC(CO)CC3)cc2c1 (stereo not shown) [Compound 31, N-[4-(hydroxymethyl)cyclohexyl]-5-methoxy-7-[2-(2,2,2-trifluoroethoxy)phenyl] benzofuran-2-carboxamide]
5	N#Cc1ccc(F)c(-c2cccc3cc(C(=O)N[C@@H]4CC[C@H](O)C4)oc23)c1 [Compound 32, 7-(5-cyano-2-fluoro-phenyl)-N-[(1R,3S)-3-hydroxycyclopentyl] benzofuran-2-carboxamide]
6.5	CCOc1ccc(F)cc1-c1cccc2cc(C(=O)N[C@@H]3CC[C@H](O)C3)oc12 [Compound 33, 7-(2-ethoxy-5-fluoro-phenyl)-N-[(1R,3S)-3-hydroxycyclopentyl] benzofuran-2-carboxamide]
34	O=C(N[C@H]1CC[C@H](O)CC1)c1cc2cccc(-c3ccccc3OCC(F)(F)F)c2o1 [Compound 34, Trans-N-(4-hydroxycyclohexyl)-7-[2-(2,2,2-trifluoroethoxy)phenyl] benzofuran-2-carboxamide]
94	COCCOc1ccccc1-c1cccc2cc(C(=O)Nc3cccnc3)oc12 [Compound 35, 7-[2-(2-methoxyethoxy)phenyl]-N-(3-pyridyl)benzofuran-2-carboxamide]
0.79	COc1ncc(C#N)cc1-c1cccc2cc(C(=O)NC34CCC(O)(CC3)C4)oc12 [Compound 38, 7-(5-cyano-2-methoxypyridin-3-yl)-N-(4-hydroxybicyclo[2.2.1]heptan-1-yl)benzofuran-2-carboxamide]
